# Experimental data: patent US12006503B2, “Fusion proteins and methods thereof” (The Trustees of Columbia University in the City of New York, priority 2012, dated 2024)
# “Also recorded” adds a separate entry of the source.
# Tests used:
# [1] = test system: intracranial luciferase-expressing FGFR3-TACC3-driven glioma xenografts; assay: Orthotopic (intracranial) FGFR3-TACC3-driven glioma xenografts, drug treatment, survival; format: in vivo, mouse; conditions: 50 mg/kg, oral, 20 days
# Source text: Mice were monitored daily and sacrificed when neurological symptoms appeared.
# [2] = test system: GIC-1123 tumor xenografts; assay: Subcutaneous GIC-1123 xenografts treated with JNJ-42756493; conditions: 12 mg/kg, oral
# Method: After tumor establishment (arrow) mice were treated with vehicle or JNJ-42756493 (12 mg/kg) for 14 days. Values are mean tumor volumes±SD, (n=9 mice per group). P-value of the slope calculated from the treatment starting point (arrow) is 0.04.
# Subcutaneous xenografts and drug treatment. GIC-1123 cells (5×10^5) were injected subcutaneously in the flank of athymic nude (Nu/Nu) mice (Charles River Laboratories). Mice carrying ˜200 mm 3 subcutaneous tumors were randomized to receive 12 mg/kg JNJ-42756493 or DMSO in 1% Tween 80 by oral gavage. Tumor diameters were measured with caliper and tumor volumes estimated using the formula: 0.5×length×width 2. Data are mean±SD of nine mice in each group. Mice were sacrificed when tumors in the control group reached the maximal size allowed by the IACUC Committee at Columbia University.
# [3] = test system: recurrent GBM harboring FGFR3-TACC3 fusions; assay: Phase I trial of JNJ-42756493 in patients with recurrent GBM harboring FGFR3-TACC3 (MRI, RANO, volumetry)
# Source text: (A) Post-gadolinium T1 weighted images show the target lesion on the right parietal lobe. […] (B) Analysis of sum of product diameters (SPD) before and during the anti-FGFR treatment (RANO criteria). (C) Analysis of tumor volume (cm3) before and during the anti-FGFR treatment. […] (D) Perfusion images at baseline and after 20 days of anti-FGFR treatment. rCBV (relative cerebral blood volume). Post-gadolinium T1 weighted images with color overlay of rCBV are shown. […] (F) Analysis of sum of product diameters (SPD) before and during the anti-FGFR treatment.
# MRI imaging and evaluation of clinical response to JNJ-42756493. Baseline and follow-up imaging assessments were performed on 1.5 Tesla MR imaging systems, including at least axial T1 weighted images before gadolinium injection, Axial or 3D FLAIR (Fluid-Attenuated Inversion-Recovery), dynamic susceptibility contrast MR perfusion (0.1 mmol/kg of gadobutrol), axial and 3D T1 weighted images after gadolinium injection. Tumor response was assessed according to the RANO criteria (33). Contrast-enhancing lesion volume was assessed with the help of a semi-automated volumetry tool (SegmentiX), based on shape-detection and thresholding, with control and manual correction of edges when necessary. Since exclusion of cystic or necrotic portions of the lesion may be affected by operator subjectivity, both were included for volumetric and axial measurements.
# DSC (dynamic susceptibility contrast) perfusion datasets were processed with vendor's software suite (Neuroperfusion, Philips), including coregistration and rCBV (relative cerebral blood volume) parametric maps generation with 3 different algorithms (Gamma-variate fitting, Arterial Input Function based deconvolution and Model Free).
# [4] = test system: all members of the FGFR family; conditions: cited from earlier work
# activated FGFR = conditions: cited from earlier work
# [5] = test system: mouse astrocytes expressing FGFR3-TACC3-KD or the empty vector; conditions: cells expressing KD mutant fusion or empty vector
# Method: (§1) Cell culture and cell growth assay. GIC-1123 gliomaspheres were cultured in neurobasal medium (Invitrogen) supplemented with B27, N2 (Invitrogen), EGF and FGF2 (20 ng/ml, PeproTech). Mouse astrocytes Ink4A-Arf−/− were cultured in DMEM supplemented with 10% Fetal Bovine Serum. Cells were seeded at 1,000 cells/well in a 96-well plate and treated with JNJ-42756493. After 72 hours cell viability was assessed using the 3-(4,5-dimethythiazol-2-yl)-2,5-diphenyl tetrazolium bromide (MTT) assay. Data are mean±SEM of six replicates. Experiments were performed three times.
# [6] = test system: mouse astrocytes expressing FGFR3-TACC3; conditions: mouse astrocytes expressing FGFR3-TACC3, 72 hours, MTT
# Method: as §1
# [7] = test system: human glioma stem cells GIC-1123; conditions: GIC-1123, 72 hours, MTT
# Method: as §1
# [8] = test system: nonclinical models with FGFR aberrations; conditions: squamous NSCLC, gastric, breast, HCC, endometrial, bladder; cited from earlier work
# [9] = test system: Rat1A cells and Ink4A;Arf-/- astrocytes; assay: Premature sister chromatid separation (PMSCS) in metaphase spreads; format: cell-based; conditions: cells expressing FGFR3-TACC3
# Source text: Correction of premature sister chromatid separation (PMSCS) by PD173470 in cells expressing FGFR3-TACC3. Panels show representative metaphase spreads. DNA was stained by DAPI.
# Left, panels show representative metaphase spreads. Right, quantitative analysis of metaphases with loss of sister chromatid cohesion. The number of mitosis with PMSCS in Ink4A; Arf−/− astrocytes was scored in at least 100 methaphases for each condition in three independent experiments. The number of mitosis with PMSCS was scored in triplicate samples of Rat1A cells. FIG. 13D is a graph showing nocodazole was added for the indicated durations to Rat1A-H2B-GFP cells transduced with the specified lentiviruses. The mitotic index at each time point was determined by quantitating the H2B-GFP-positive cells in mitosis at each time point. Data are presented as average and standard deviation (n=3).
# (§2) Karyotype analysis. Cultured cells were colcemid (20 ng/ml) treated for 90 minutes before harvesting for karyotopic analysis as detailed in Extended Experimental procedures. At least one hundred cells in metaphase were examined for chromosome count. PMSCS was scored in cells where a majority of the sister chromosomes were no longer associated. Two-tailed unpaired t-tests with Welch's correction were performed for comparison of means analysis.
# Rat1A cells = assay: Karyotype analysis (chromosome counts, aneuploidy) of Rat1A cells; format: cell-based, rat; conditions: five days
# Method: Distribution of chromosome counts of cells arrested in mitosis and analyzed for karyotypes using DAPI. Chromosomes were counted in 100 metaphase cells for each condition to determine the ploidy and the diversity of chromosome counts within the cell population. FGFR3-TACC3 fusion induces aneuploidy.
# The upper panel is a karyotype analysis of Rat1A cells transduced with control or FGFR3-TACC3 lentivirus and treated with vehicle (DMSO) or PD173470 (100 nM) for five days.
# as §2
# Karyotypic Analysis. The colcemid treated cells were trypsinized, centrifuged for 7 minutes at 200×g, and the cell pellet re-suspended in warmed hypotonic solution and incubated at 37° C. for 13 minutes. The swollen cells were then centrifuged and the pellet re-suspended in 8 ml of Carnoy's fixative (3:1 methanol:glacial acetic acid). […] Slides were stained with DAPI and metaphases were analyzed under a fluorescent microscope.
# [10] = test system: glioma xenografts of FGFR3-TACC3 transformed astrocytes; assay: Subcutaneous glioma xenografts of FGFR3-TACC3 transformed astrocytes, drug treatment; format: in vivo, mouse; conditions: 50 mg/kg, oral gavage
# Method: (§3) Subcutaneous xenografts and drug treatment. […] For experiments with FGFR inhibitors, mice carrying ˜200-300 mm 3 subcutaneous tumors derived from Ink4A; Arf−/− astrocytes were randomized to receive 50 mg/kg PD173074 in 0.05 M lactate buffer (pH 5) or an equal volume of lactate buffer by oral gavage. Treatment was administered for three cycles consisting of four consecutive days followed by two days of rest. […] Data are expressed as mean±SE.
# FGFR3-TACC3 = molecular target: T1, FGFR3-TACC3 (Homo sapiens, UniProt P22607); assay: Western blot of constitutive phosphorylation of FGFR3-TACC3 and FRS2 in Ink4A;Arf-/- astrocytes; format: cell-based, mouse; conditions: 100 nM PD173074, Ink4A;Arf-/- astrocytes
# T1 construct: a protein of 1,048 amino acids resulting from the fusion of a FGFR3 amino-terminal portion of residues 1-758; expressed in transfected cells; host or cells: Ink4A;Arf-/- mouse astrocytes, lentiviral transduction (pLOC-GFP / pTomo vectors)
# Method: Ink4A; Arf−/− astrocytes transduced with empty lentivirus or a lentivirus expressing FGFR3-TACC3 or FGFR3-TACC3-K508M were left untreated (0) or treated with 100 nM of the FGFR inhibitor PD173074 for the indicated times. Phospho-proteins and total proteins were analyzed by Western blot using the indicated antibodies.
# [11] = test system: Rat1A cells and Ink4A;Arf-/- astrocytes; assay: Quantitative analysis of chromosome segregation defects in mitoses; format: cell-based
# Source text: Quantitative analysis of metaphase spreads for chromosome segregation defects in Ink4A; ARF−/− astrocytes expressing vector control or FGFR3-TACC3 (upper panel). Microscope imaging analysis of chromosome segregation defects in Ink4A; Arf−/− astrocytes expressing FGFR3-TACC3 or vector control. Representative images of cells with chromosome missegregation. Arrows point to chromosome misalignments, lagging chromosomes and chromosome bridges.
# Confocal microscopy imaging. For immunofluorescence of fixed cells, images were recorded with a Z-optical spacing of 0.25 μm using a Nikon AIR MP and a 60×1.3 oil objective and analyzed using ImageJ software (National Institute of Health). For live-cell analyses, Rat1A cells infected with pLNCX-H2B retrovirus and transduced with lentiviral vector or FGFR3-TACC3 fusion were seeded in glass bottom dishes in phenol red free DMEM and followed by time-lapse microscopy using the Nikon AIR MP biostation at 37° C. and 5% CO2/95% air. Images with a Z-optical spacing of 1 μm were recorded every 4 min for 8 h. Images of unchallenged mitosis from early prophase until cytokinesis were processed using ImageJ software (National Institute of Health). The time-point of nuclear envelope breakdown (NEB) was defined as the first frame showing loss of smooth appearance of chromatin and anaphase was the first frame when chromosome movement towards the poles became apparent. […]
# [12] = test system: Ink4A;Arf-/- astrocytes in immunodeficient mice; assay: Subcutaneous tumor xenograft formation by lentivirus-transduced Ink4A;Arf-/- astrocytes; format: in vivo, mouse
# Source text: FIG. 3B are photomicrographs showing of immunofluoresence staining of tumors from mice injected with Ink4A; Arf−/− astrocytes expressing FGFR3-TACC3 showing positivity for glioma-specific (Nestin, Oig2 and GFAP) and proliferation markers (Ki67 and pHH3). Sub-cutaneous tumors were generated by Ink4A; Arf−/− astrocytes expressing FGFR-TACC fusions.
# as §3
# Rat1 = assay: Soft agar colony assay, Rat1 cells; format: cell-based, rat; conditions: Rat1 cells transduced with the construct
# Source text: FGFR1-TACC1 and FGFR3-TACC3 induce anchorage-independent growth in Rat1A fibroblasts. The number of soft agar colonies was scored from triplicate samples 14 days after plating. Representative microphotographs are shown.
# [13] = test system: Rat1A cells expressing FGFR3-TACC3 fusion; assay: Growth of Rat1A cells expressing FGFR3-TACC3 after FGFR3 shRNA lentivirus (trypan blue exclusion); format: cell-based, rat; conditions: lentiviral shRNA
# Method: At the left, parallel cultures of GSC-1123 cells were transduced in triplicate. Rat1A cells expressing FGFR3-TACC3 fusion were transduced with lentivirus expressing a non-targeting shRNA (Ctr) or shRNA sequences targeting FGFR3 (sh2, sh3, sh4). Five days after infection cells were plated at density of 2λ10^4 cells/well in triplicate and the number of trypan blue excluding cells was scored at the indicated times. […] Values are the means±standard deviation (n=3). At the right sided figure, GSC-1123 cells were transduced with lentivirus expressing a non-targeting shRNA (sh-Ctr) or lentivirus expressing sh-3 and sh-4 sequences targeting FGFR3. Western Blot analysis was performed on parallel cultures using the FGFR3 antibody to the detect FGFT3-TACC3 fusion protein. β-actin is shown as a control for loading.
# Cloning and Lentiviral production. Lentiviral expression vectors, pLOC-GFP (Open Biosystems) and pTomo-shp53, were used to clone FGFR3, TACC3, FGFR3-TACC3, FGFR3-TACC3-K508M, and FGFR1-TACC1. pTomo-shp53 was a gift of Inder Verma and Dinorah Friedman-Morvinski (Salk Institute, San Diego). The FGFR3-TACC3-K508M mutant was generated using the Phusion Site Direct Mutagenesis kit (NEB, USA). MISSION shRNAs clones (pLK0.1 lentiviral expression vectors) against FGFR3 were purchased from Sigma. The hairpin sequences targeting the FGFR3 gene are—
compound,measurement,setting,value
COc1cc(CCc2cc(NC(=O)c3ccc(N4C[C@@H](C)N[C@@H](C)C4)cc3)n[nH]2)cc(OC)c1 [AZD4547],survival of mice with intracranial FGFR3-TACC3 glioma,[1],markedly prolonged survival
COc1cc(OC)cc(N(CCNC(C)C)c2ccc3ncc(-c4cnn(C)c4)nc3c2)c1 [JNJ-42756493],growth of GIC-1123 tumor xenografts,[2],potent growth inhibition
same,tumor regression of GIC-1123 xenografts,[2]; after two weeks,statistically significant tumor regression
same,change of the enhancing parenchyma of the tumor mass,[3]; Patient 1,−44%
same,duration of stabilization,[3]; Patient 1,115 days
same,toxicity observed during treatment,[3]; Patient 1,"grade I hyperphosphatemia, asthenia, dysgueusia, dry mouth, keratitis, and grade II nail changes"
same,"tumor response on MRI (RANO sum of product diameters, volumetry)","[3]; Patient 1, 12 mg/day, 7 days on/7 days off",stabilization of the tumor; also recorded: stable disease; also recorded: disease stabilization
same,extent of tumor vascularity (rCBV),"[3]; Patient 1, MR perfusion",marked reduction
same,clinical status,"[3]; Patient 1, after 3 weeks",marked clinical improvement
same,time to best response,[3]; Patient 2,104 days
same,time to disease progression after start of anti-FGFR,[3]; Patient 2,134 days
same,toxicity observed during treatment,[3]; Patient 2,"Grade I hyperphosphatemia, nail changes, and mucositis"
same,tumor response category,[3]; Patient 2,minor response
same,clinical status,"[3]; Patient 2, after 4 weeks",clinical improvement
same,reduction of tumor size according to the RANO criteria,"[3]; Patient 2, best response",22%
same,tumor reduction according to volumetry,"[3]; Patient 2, best response",28%
same,IC50 values for all members of the FGFR family,[4],low nanomolar range
same,concentration inhibiting tyrosine phosphorylation of activated FGFR,activated FGFR,nanomolar concentrations
same,sensitivity to FGFR inhibition,[5],but not cells expressing the KD mutant fusion or the empty vector
same,IC50,[6],3.03 nM
same,IC50,[7],1.55 nM
same,antitumor activities in nonclinical models with FGFR aberrations,[8],potent antitumor activities
CCN(CC)CCCCNc1ncc2cc(-c3cc(OC)cc(OC)c3)c(NC(=O)NC(C)(C)C)nc2n1 [PD173074],cohesion defect (premature sister chromatid separation),[9],largely corrected
same,cohesion defect (premature sister chromatid separation),[9]; listed as PD173470,Correction
same,distribution of chromosome counts,"Rat1A cells; Rat1A expressing FGFR3-TACC3, 100 nM",restored the narrow distribution of chromosome counts
same,rescue of the aneuploidy caused by FGFR3-TACC3,"Rat1A cells; Rat1A, 100 nM",over 80%
same,tumor growth of FGFR3-TACC3 glioma subcutaneous xenografts,[10],potent growth inhibition
same,constitutive phosphorylation of the TK domain of FGFR3-TACC3 and of FRS2,FGFR3-TACC3,abolished
FGFR1-TACC1: fusion protein in which the TK domain of FGFR1 is fused upstream of the TACC domain of TACC1 (SEQ ID NO: 150),increase of chromosomal segregation errors versus control cells,[11],three to five fold increase
same,mice with tumors after subcutaneous injection of astrocytes expressing the fusion protein,"[12]; Ink4A;Arf-/- astrocytes, immunodeficient mice",100%
same,Subcutaneous tumor xenografts (tumors formed/injections),[12]; Ink4Arf-/- astrocytes expressing the construct,8/8
same,soft agar colonies,Rat1,225.3 ± 10.0
"sh-3: MISSION shRNA hairpin targeting the FGFR3 gene, SEQ ID NO: 183 (guide GTTCCACTGCAAGGTGTACAG; the letters are possibly those of the target site)",growth of cells ectopically expressing FGFR3-TACC3 after FGFR3 silencing,[13],reverted the growth rate
"sh-4: MISSION shRNA hairpin targeting the FGFR3 gene, SEQ ID NO: 184 (guide GCACAACCTCGACTACTACAA; the letters are possibly those of the target site)",growth of cells ectopically expressing FGFR3-TACC3 after FGFR3 silencing,[13],reverted the growth rate
